Experimental data reported in patent EP4810038A1, “METHOD FOR TREATING ALK-POSITIVE OR ROS1-POSITIVE NON-SMALL CELL LUNG CANCER” (Shenzhen TargetRx Co., Ltd., priority 2023, dated 2025).
Where “and” joins values, the source holds several entries; their conditions need not be identical. Identical values can stand only once. Entries after “also recorded” stand apart in the source; their conditions may differ.

System: ALK-positive advanced NSCLC
Assay: Phase I clinical trial, indication expansion phase: efficacy in ALK-positive patients (group A cohort 1: prior crizotinib only; cohort 2: prior second-generation ALK inhibitor; group C: ALK inhibitor naive)
Assay type: in vivo, human
Description: The anti-tumor efficacy is evaluated according to RECIST version 1.1. For patients initially evaluated as having a complete response (CR) or partial response (PR), efficacy should be confirmed at least 4 weeks later. In the patients with asymptomatic central nervous system (CNS) metastases, in addition to evaluating 5 extracranial target lesions, up to 5 intracranial target lesions will also be evaluated. The specific indicators are as follows:
"ORR" includes CR and PR, and is defined as the proportion of patients who achieve complete response or partial response.
"IC-ORR" includes CR or PR for confirmed intracranial lesions, and is defined as the proportion of the patients with complete response or partial response of intracranial lesions among the patients with intracranial lesions.
"DCR" is defined as the proportion of the patients who achieve response (PR+CR) and stable disease (SD) after a treatment.
"IC-DCR" is defined as the proportion of the patients who achieve intracranial response (PR+CR), intracranial stable disease (SD), and […] after a treatment among the patients with intracranial lesions.
"DOR" is defined as the time from the first assessment of CR or PR to progressive disease or death, and is only applicable to the patients who achieve response.
"IC-DOR" is defined as the time from the first assessment of intracranial CR or intracranial PR to progressive disease or death, and is only applicable to the patients whose intracranial lesions achieve response.
"TTR" is defined as the time from patient enrollment (first dose of investigational drug) to tumor response (CR/PR), based on the patients with objective response.
"IC-TTR" is defined as the time from patient enrollment (first dose of investigational drug) to intracranial tumor response (IC-CR/PR), based on the patients with intracranial objective response.
"PFS" is defined as the time from the first administration of the investigational drug to progressive disease (PD) or death from any cause, whichever comes first.
In the indication expansion phase, an appropriate administration regimen was determined based on the safety, tolerability, PK and efficacy data from the dose escalation phase and dose expansion phase, and the expansion was performed within the target population.
The result of a pregnancy test conducted ≤7 days prior to the first administration of the investigational drug must be negative for the women of childbearing age.

[1] = intracranial measurable lesions, Group A, cohort 2 (n=27)
[2] = intracranial measurable lesions, Group C (n=8)
[3] = intracranial measurable lesions, In total (ALK-positive) (n=52)
[4] = systemic, Group A, cohort 1 (n=14)
[5] = systemic, Group A, cohort 2 (n=97)
[6] = systemic, In total (ALK-positive) (n=144)

[2H]C([2H])([2H])n1nc2c(c1C#N)-c1cnc(N)c(c1)O[C@H](C)c1cc(F)ccc1C(=O)N(C)C2 [compound A, (10R)-7-amino-12-fluoro-2-(methyl-d3)-10,16-dimethyl-15-oxo-10,15,16,17-tetrahydro-2H-8,4-(metheno)pyrazolo[4,3-h][2,5,11]benzoxadiazacyclotetradecine-3-carbonitrile]
BOR CR [1]: 5 n (%) and 5 (18.5) n (%)
BOR NE [1]: 1 (3.7) n (%)
BOR PD [1]: 0 n (%)
BOR PR [1]: 14 n (%) and 14 (51.9) n (%)
BOR SD [1]: 7 (25.9) n (%)
Confirmed ORR (95% CI) [1]: 19 (70.4) (49.8, 86.2) n (%)
DCR (95% CI) [1]: 26 (96.3) (81.0, 99.9) n (%)
Median DOR (95% CI) [1]: 17.97 months and 17.97 (6.64, NR) months
Median TTR (range) [1]: 1.41 months and 1.41 (1.31, 9.72) months
BOR CR [2]: 0 n (%)
BOR NE [2]: 0 n (%)
BOR PD [2]: 0 n (%)
BOR PR [2]: 6 n (%) and 6 (75.0) n (%)
BOR SD [2]: 2 (25.0) n (%)
Confirmed ORR (95% CI) [2]: 6 (75.0) (34.9, 96.8) n (%)
DCR (95% CI) [2]: 8 (100) (63.1, 100) n (%)
Median DOR (95% CI) [2]: not reached; also recorded: NR (4.17, NR)
Median TTR (range) [2]: 1.41 months and 1.41 (1.35, 1.45) months
BOR CR [3]: 6 (11.5) n (%)
BOR NE [3]: 2 (3.8) n (%)
BOR PD [3]: 1 (1.9) n (%)
BOR PR [3]: 24 (46.2) n (%)
BOR SD [3]: 19 (36.5) n (%)
Confirmed ORR (95% CI) [3]: 30 (57.7) (43.2, 71.3) n (%)
DCR (95% CI) [3]: 49 (94.2) (84.1, 98.8) n (%)
Median DOR (95% CI) [3]: 17.97 (17.97, -) months
Median TTR (range) [3]: 1.40 (1.31, 9.72) months
intracranial ORR (prior crizotinib, four patients with measurable CNS lesions at baseline): 50.0%
IC-ORR (prior second-generation TKI, 27 patients with measurable CNS lesions at baseline): 70.4%
BOR CR [4]: 0 n (%)
BOR NE [4]: 0 n (%)
BOR PD [4]: 0 n (%)
BOR PR [4]: 10 n (%) and 10 (71.4) n (%)
BOR SD [4]: 4 n (%) and 4 (28.6) n (%)
Confirmed ORR (95% CI) [4]: 10 (71.4) (41.9, 91.6) n (%)
DCR (95% CI) [4]: 14 (100) (76.8, 100.0) n (%)
Median DOR (95% CI) [4]: not reached; also recorded: NR (5.585, NR)
Median TTR (range) [4]: 2.71 months and 2.71 (1.25, 9.66) months
BOR CR [5]: 0 n (%)
BOR NE [5]: 2 (2.1) n (%)
BOR PD [5]: 16 (16.5) n (%)
BOR PR [5]: 38 (39.2) n (%)
BOR SD [5]: 41 (42.3) n (%)
Confirmed ORR (95% CI) [5]: 38 (39.2) (29.4, 49.6) n (%)
DCR (95% CI) [5]: 79 (81.4) (72.3, 88.6) n (%)
Median DOR (95% CI) [5]: 12.48 months and 12.48 (12.45, NR) months
Median TTR (range) [5]: 1.38 months and 1.38 (1.28, 9.72) months
BOR CR (systemic, Group C (n=33)): 0 n (%)
BOR NE (systemic, Group C (n=33)): 0 n (%)
BOR PD (systemic, Group C (n=33)): 1 (3.0) n (%)
BOR PR (systemic, Group C (n=33)): 28 n (%) and 28 (84.8) n (%)
BOR SD (systemic, Group C (n=33)): 4 n (%) and 4 (12.1) n (%)
Confirmed ORR (95% CI) (systemic, Group C (n=33)): 28 (84.8) (68.1, 94.9) n (%)
DCR (95% CI) (systemic, Group C (n=33)): 32 (97.0) (84.2, 99.9) n (%)
Median DOR (95% CI) (systemic, Group C (n=33)): not reached; also recorded: NR (9.69, NR)
Median TTR (range) (systemic, Group C (n=33)): 1.35 months and 1.35 (1.12, 4.21) months
BOR CR [6]: 0 n (%)
BOR NE [6]: 5 (2.9) n (%)
BOR PD [6]: 21 (12.3) n (%)
BOR PR [6]: 84 (49.1) n (%)
BOR SD [6]: 61 (35.7) n (%)
Confirmed ORR (95% CI) [6]: 84 (49.1) (41.4, 56.9) n (%)
DCR (95% CI) [6]: 145 (84.8) (78.5, 89.8) n (%)
Median DOR (95% CI) [6]: 12.48 (12.45, -) months
Median TTR (range) [6]: 1.38 (1.12, 13.96) months
